Results reported in the supplement of paper PMC13380429.

Assays:
Details in all cases: 72 h
HepG2 [1] = assay: drug sensitivity score (DSS) for viability; higher = more toxic; extreme values may be limits of the assay
U2OS [2] = assay: as above
Vero E6 [3] = assay: as above
Calu-3 [4] = assay: as above
Caco-2 [5] = assay: as above
HepG2 [6] = assay: cell viability relative to DMSO; higher = less toxic
U2OS [7] = assay: as above
Vero E6 [8] = assay: as above
Calu-3 [9] = assay: as above
Caco-2 [10] = assay: as above
HepG2 [11] = assay: relative viability EC50 (midpoint between 100% and the lowest measured viability); higher = less toxic
U2OS [12] = assay: as above
Vero E6 [13] = assay: as above
Calu-3 [14] = assay: as above
Caco-2 [15] = assay: as above

Structure (SMILES)	drug sensitivity score (HepG2 [1])	drug sensitivity score (U2OS [2])	drug sensitivity score (Vero E6 [3])	drug sensitivity score (Calu-3 [4])	drug sensitivity score (Caco-2 [5])	cell viability (HepG2 [6]; 1 nM) [%]	cell viability (HepG2 [6]; 10 nM) [%]	cell viability (HepG2 [6]; 100 nM) [%]	cell viability (HepG2 [6]; 1000 nM) [%]	cell viability (HepG2 [6]; 10000 nM) [%]	cell viability (U2OS [7]; 1 nM) [%]	cell viability (U2OS [7]; 10 nM) [%]	cell viability (U2OS [7]; 100 nM) [%]	cell viability (U2OS [7]; 1000 nM) [%]	cell viability (U2OS [7]; 10000 nM) [%]	cell viability (Vero E6 [8]; 1 nM) [%]	cell viability (Vero E6 [8]; 10 nM) [%]	cell viability (Vero E6 [8]; 100 nM) [%]	cell viability (Vero E6 [8]; 1000 nM) [%]	cell viability (Vero E6 [8]; 10000 nM) [%]	cell viability (Calu-3 [9]; 1 nM) [%]	cell viability (Calu-3 [9]; 10 nM) [%]	cell viability (Calu-3 [9]; 100 nM) [%]	cell viability (Calu-3 [9]; 1000 nM) [%]	cell viability (Calu-3 [9]; 10000 nM) [%]	cell viability (Caco-2 [10]; 1 nM) [%]	cell viability (Caco-2 [10]; 10 nM) [%]	cell viability (Caco-2 [10]; 100 nM) [%]	cell viability (Caco-2 [10]; 1000 nM) [%]	cell viability (Caco-2 [10]; 10000 nM) [%]	relative viability EC50 (HepG2 [11]) [µM]	relative viability EC50 (U2OS [12]) [µM]	relative viability EC50 (Vero E6 [13]) [µM]	relative viability EC50 (Calu-3 [14]) [µM]	relative viability EC50 (Caco-2 [15]) [µM]
CC(=O)/N=c1/sc(S(N)(=O)=O)nn1C [methazolamide]	0	0	0	0	0	101	97.6	101	101	102	105	107	104	98.3	102	97	99	98.2	98.4	92.7	100	99.4	93.7	98.3	107	110	101	100	94	96.7	> 10	> 10	> 10	> 10	> 10
c1ccc2c(c1)Sc1ccccc1N2C[C@H]1CN2CCC1CC2 [levomequitazine]	0.2	0	0	0	0.3	104	97.7	97.9	98.2	86.9	97.6	102	97.8	101	90.4	115	98.2	99.3	98.6	93.5	105	104	102	108	86.3	99.6	106	106	105	82.6	> 10	> 10	> 10	> 10	> 10
CC[N+](C)(CC)CCC[n+]1c(-c2ccccc2)c2cc(N)ccc2c2ccc(N)cc21 [propidium-iodide]	1.2	0.3	0	0	1.5	93.8	104	90.8	90.4	80.1	99.2	103	98.4	99.8	83.7	96.8	99.5	98.3	96	95.7	100	99.6	102	104	92.3	91.3	99.2	93.1	95.3	75.7	> 10	> 10	> 10	> 10	> 10
O=C1OC(OC(=O)c2cccnc2Nc2cccc(C(F)(F)F)c2)c2ccccc21 (stereo not given) [talniflumate]	0	0	0	0	0	96.3	89.6	104	96.7	104	97.1	101	98.9	102	103	99	97.6	96.8	91	95.3	90.9	100	95	99.1	101	95.4	96.9	99.5	102	104	> 10	> 10	> 10	> 10	> 10
Cn1c2c(c3ccccc31)CCNCC2	0	0	0	0	0	93	98.3	93.1	103	98.4	100	94.4	98.3	95.9	104	102	103	104	108	99.6	96.7	101	99.3	103	96.8	109	98.6	102	97.9	97.1	> 10	> 10	> 10	> 10	> 10
Cc1ncc(C[n+]2csc(CCOP(=O)(O)OP(=O)(O)O)c2C)c(N)n1 [thiamine-pyrophosphate]	0	0	0	0	0	95.7	112	97.4	110	134	95.7	95.1	104	95.9	98.2	91.8	101	92.6	96.1	110	98.5	98	104	94	103	95.4	88.1	106	95.5	104	> 10	> 10	> 10	> 10	> 10
CCNC(=O)c1n[nH]c(-c2cc(Cl)c(O)cc2O)c1-c1ccc(OC)cc1	13.3	8.6	6.5	5.6	6.2	104	94.2	105	31.3	2	93.7	99.1	99.5	78.7	4.7	100	95.7	100	78.5	37.8	99.8	88.5	96.1	85.8	39.2	95.3	101	94.4	83.8	32.7	0.714	1.64	1.29	1.61	1.58
C[C@]12CC[C@H]3[C@@H](CCC4=CC(=O)CC[C@@]43C)[C@@H]1CC[C@@H]2C(=O)CO [desoxycortone]	0	0	0	0	0.2	101	95.8	97	87.1	104	103	99.2	97.1	97.6	95.4	101	99.2	93.6	95.8	101	98.5	95.1	91.5	105	95.8	100	101	102	97	87.4	> 10	> 10	> 10	> 10	> 10
C[C@]12CC[C@@H]3c4ccc(O)cc4CC[C@H]3[C@@H]1C[C@@H](O)[C@@H]2O [estriol]	0	0	0	0	0	106	103	96.8	90.4	96.1	99.3	97.4	101	101	102	96	99.1	96.5	89.2	105	94.5	96.5	95.6	93.7	103	97.5	96.3	101	105	105	> 10	> 10	> 10	> 10	> 10
C[N+]1(CCCCC[N+]2(C)CCCC2)CCCC1 [pentolinium]	0	0	0	0.3	0	79.4	99.3	96	112	97.6	94.2	98.7	100	99.2	102	96.3	105	102	101	108	97.1	91.2	110	94	88.1	99	109	124	107	88.7	> 10	> 10	> 10	> 10	> 10
C/C=C1/[C@H](O[C@@H]2O[C@H](CO)[C@@H](O)[C@H](O)[C@H]2O)OC=C(C(=O)OC)[C@H]1CC(=O)OCCc1ccc(O)c(O)c1 [oleuropein]	0.1	0	0	0	0	101	97.1	98.1	108	84.4	105	98.7	101	95.1	97.8	98.8	103	98.7	105	95.2	90.8	98.8	101	102	93.6	101	108	99.9	101	88.8	> 10	> 10	> 10	> 10	> 10
NC1=NCC2c3ccccc3Cc3ccccc3N12 (stereo not given) [epinastine]	0	0	0	0	0	97.3	102	105	99.1	102	97	102	91.7	92.8	98.6	98.6	105	99.7	96	99.5	99.3	103	98.2	98	92	91.6	87.4	95	98.9	93.3	> 10	> 10	> 10	> 10	> 10
Clc1ccc(C(c2ccc(Cl)cc2)C(Cl)(Cl)Cl)cc1 [4,4'-DDT]	0	0	0	0	0	98.5	104	97.5	95.8	98.2	103	101	100	97.3	106	103	105	105	102	99.9	99.1	110	93	105	95.6	99.1	102	105	95.2	97.8	> 10	> 10	> 10	> 10	> 10
